From patent publication US20240041039A1, “COMPOSITIONS AND METHODS FOR CONTROLLING PLANT PATHOGENS INCLUDING NEMATODES” (Kannar Earth Science, Ltd., priority 2022, published 2024)

System: root knot Meloidogyne sp. nematodes
Experiment: Two-minute contact of live root-knot nematodes with water-based solutions in watch glass
Format: in vivo
Conditions: one drop of water-based solution, fatality recorded within 45 seconds
Method: Live root knot nematodes were collected from soil and kept in shallow water in small glass beakers at room temperature. The individual components and combined formulation were prepared according to the following procedures. Aqueous solutions of individual components were prepared at the concentrations as follows: 400 ppm baicalin (95% purity; Shaanxi Darwin Biotech Co, China), 500 ppm water soluble chitosan (85% purity; Shaanxi Rainwood Biotech Co Ltd, China) and 200 ppm L-glutathione (99% purity; Hunan Insen Biotech Co Ltd, China). Since use of liquid polymer is quite common in seed treatment for better and smoother coating or coverage, each of the individual components and combinations of the components was also prepared as a solution in a cellulose-based carrier (Slurry Buddy 110 from […] Science, Ltd.). Baicalin was dissolved in 1.0 ml of DMSO separately prior to addition to the carrier. Chitosan and glutathione were dissolved in 7.8 ml water prior to addition to the 90.0 ml carrier. In each case, the pH of the solution was adjusted to 5.7. […] This liquid flowable formulation can be used as a ready-to-use (RTU) formulation for seed application. […] One drop of the water-based solutions described above was added to the watch glass with the swimming nematode and the reaction of the nematode was recorded for a period of two-minutes. […]

SMILES | Nematode Reaction
O=C(O)[C@H]1O[C@@H](Oc2cc3oc(-c4ccccc4)cc(=O)c3c(O)c2O)[C@H](O)[C@@H](O)[C@@H]1O [Baicalin, baicalin] | Repelling
N[C@@H](CCC(=O)N[C@@H](CS)C(=O)NCC(=O)O)C(=O)O [Glutathione, L-glutathione] | Repelling
